From the supplement of paper PMC10307832

Legend:
Assay in all cases: relative viability (nuclei count vs DMSO), 5 days (fraction); higher = more cells survive
[1] = compound: C1=CC(=CC=C1NC(=S)NNC2=C(C=C(C=C2[N+](=O)[O-])C(F)(F)F)[N+](=O)[O-])F [Kobe2602] + CC(=O)Nc1cccc(-n2c(=O)n(C3CC3)c(=O)c3c(Nc4ccc(I)cc4F)n(C)c(=O)c(C)c32)c1 [Trametinib] (partner 0.02 µM)
Procedure, shortened: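 Relative viability equals treated-well nuclei counts divided by vehicle-well nuclei counts. Counts came from 4× images of lung cancer cell lines grown in 1536-well plates for 5 days after pin-tool dosing on the day after seeding. Dosing used one drug alone or a fixed anchor-drug dose plus five library-drug doses (not always all listed) in √10 steps, and values are medians of duplicate plates.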

[2] = compound: C1=CC(=CC=C1NC(=S)NNC2=C(C=C(C=C2[N+](=O)[O-])C(F)(F)F)[N+](=O)[O-])F [Kobe2602]
Procedure, shortened: (§1)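 For viability, nuclei in each treated well were divided by nuclei in vehicle wells and the median across plates was taken. Lung cancer cell lines in 1536-well plates were pinned with five library-drug doses (not always all listed) spaced by √10, cultured 5 days without medium change, and imaged at 4× after Hoechst staining, with plates passing only at control CV below 25% and at least one doubling.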

[3] = compound: O[C@@H](COc1cccc2ncccc12)CN1CCN([C@@H]2c3ccccc3[C@@H]3[C@H](c4ccccc42)C3(F)F)CC1 [Zosuquidar]
Procedure, shortened: as §1

[4] = compound: COc1cc2nccc(Oc3ccc(NC(=O)C4(C(=O)Nc5ccc(F)cc5)CC4)cc3)c2cc1OC [Cabozantinib]
Procedure, shortened: as §1

Row | Cell Line | relative viability ([1]; first compound 0.2 µM) | relative viability ([1]; first compound 0.6325 µM) | relative viability ([1]; first compound 2 µM) | relative viability ([1]; first compound 6.325 µM) | relative viability ([1]; first compound 20 µM) | relative viability ([2]; 0.2 µM) | relative viability ([2]; 0.6325 µM) | relative viability ([2]; 2 µM) | relative viability ([2]; 6.325 µM) | relative viability ([2]; 20 µM) | relative viability ([3]; 0.01 µM) | relative viability ([3]; 0.03162 µM) | relative viability ([3]; 0.1 µM) | relative viability ([3]; 0.3162 µM) | relative viability ([3]; 1 µM) | relative viability ([4]; 0.02 µM) | relative viability ([4]; 0.06325 µM) | relative viability ([4]; 0.2 µM) | relative viability ([4]; 0.6325 µM) | relative viability ([4]; 2 µM)
1 | NCI-H1650 | 0.724 | 0.525 | 0.59 | 0.536 | 0.586 | 0.891 | 1.02 | 0.99 | 0.913 | 0.846 | 0.885 | 0.929 | 0.876 | 1.06 | 0.912 | 0.925 | 1.13 | 0.805 | 1.02 | 0.89
2 | NCI-H1648 | 0.474 | 0.488 | 0.465 | 0.457 | 0.408 | 1.22 | 0.902 | 0.701 | 0.824 | 0.763 | 0.969 | 0.947 | 0.676 | 0.673 | 0.852 | 0.868 | 0.991 | 0.629 | 1.07 | 0.802
3 | NCI-H1355 | 0.441 | 0.464 | 0.369 | 0.415 | 0.43 | 0.914 | 1.01 | 0.911 | 0.965 | 0.959 | 0.99 | 0.967 | 0.843 | 1.06 | 0.973 | 0.954 | 1.11 | 0.977 | 0.96 | 0.961
4 | NCI-H2170 | 0.982 | 0.918 | 0.921 | 0.878 | 0.922 | 1.03 | 0.958 | 0.974 | 0.992 | 0.871 | 0.989 | 1 | 0.932 | 0.971 | 0.954 | 0.991 | 1 | 0.864 | 1.02 | 1.04
5 | NCI-H1734 | 0.618 | 0.77 | 0.664 | 0.711 | 0.695 | 1.05 | 1.05 | 0.973 | 0.987 | 1.1 | 1 | 1 | 0.928 | 1.08 | 0.938 | 0.92 | 1.01 | 1.11 | 1.02 | 0.938
6 | LXF-289 | 0.665 | 0.658 | 0.663 | 0.691 | 0.62 | 1.03 | 1.04 | 0.99 | 0.985 | 0.991 | 1.01 | 1.02 | 1.01 | 1.02 | 0.97 | 1.04 | 1.02 | 0.974 | 1.05 | 1.02
7 | SK-LU-1 | 0.519 | 0.506 | 0.469 | 0.439 | 0.58 | 1 | 1.13 | 0.937 | 1.04 | 1.1 | 1.1 | 1.02 | 0.962 | 1.11 | 1.07 | 0.97 | 1.24 | 1.08 | 0.926 | 0.942
8 | NCI-H2087 | 0.29 | 0.188 | 0.173 | 0.196 | 0.191 | 1.02 | 1.08 | 0.995 | 1.08 | 1.13 | 1.06 | 0.971 | 0.907 | 1.19 | 1.07 | 1.09 | 1.16 | 1.03 | 0.922 | 1.02
9 | SK-MES-1 | 0.579 | 0.534 | 0.554 | 0.589 | 0.496 | 0.96 | 1.05 | 0.964 | 0.97 | 0.855 | 0.998 | 0.993 | 0.912 | 1.02 | 1.04 | 0.981 | 1.14 | 0.986 | 1.03 | 0.953
10 | HCC-78 | 0.708 | 0.891 | 0.633 | 0.768 | 0.8 | 0.984 | 0.975 | 0.968 | 0.918 | 1.15 | 1.07 | 1 | – | 0.997 | 0.897 | – | 0.958 | 0.471 | 0.37 | 0.447
11 | NCI-H1793 | 0.437 | 0.459 | 0.449 | 0.394 | 0.399 | 0.862 | 0.889 | 0.853 | 0.86 | 1.04 | 0.902 | 0.754 | – | 1.15 | 0.892 | 0.846 | 0.992 | 0.59 | 0.832 | 0.776
12 | NCI-H2228 | 0.645 | 0.612 | 0.41 | 0.461 | 0.742 | 1.02 | 1.11 | 1.01 | 0.944 | 1.11 | 0.901 | 0.979 | 1.02 | 0.952 | 1.03 | 1.05 | 1.11 | 0.938 | 0.879 | 0.871
13 | H3255 | 0.621 | 0.629 | 0.549 | 0.632 | 0.588 | 0.959 | 1.03 | 0.909 | 0.91 | 0.915 | 0.959 | 0.952 | 0.8 | 1.07 | 0.931 | 0.948 | 1.04 | – | 0.994 | 1.07
14 | HCC-15 | 0.34 | 0.397 | 0.362 | 0.386 | 0.387 | 1 | 1.03 | 0.976 | 0.998 | 0.991 | 0.959 | 0.937 | 0.956 | 1.04 | 0.972 | 0.972 | 1.11 | 1.01 | 0.994 | 1.02
15 | PC-14 | 0.697 | 0.693 | 0.659 | 0.823 | 0.361 | 0.993 | 1.05 | 0.989 | 1.04 | 0.952 | 0.988 | 0.981 | 0.953 | 1.11 | 0.954 | 1.01 | 1.14 | – | 0.996 | 0.99
16 | NCI-H2023 | 0.469 | 0.608 | 0.592 | 0.444 | 0.201 | 0.941 | 1.02 | 0.984 | 0.924 | 0.663 | 0.949 | 1.03 | 0.894 | 1.1 | 1.05 | 0.93 | 0.998 | 0.803 | 0.78 | 0.593
